Entries after “also recorded” stand apart in the source; their conditions may differ.
How the values were obtained:
mouse hippocampus [1] = experiment: Neural progenitor amplification (BrdU incorporation) after intracerebroventricular osmotic pump infusion; type: in vivo; settings: 1 mM intracerebroventricular, 0.5 μl per hour, 7 days, compared to allopurinol or vehicle alone
Method: To assess the effects of febuxostat on neural progenitor amplification, febuxostat or allopurinol (1 mM) were intracerebroventricularly delivered via osmotic pump infusion (0.5 μl per hour) to mouse brains for 7 days. Control subjects received vehicle alone. BrdU was administered in four injections on day 6, and brain tissues were harvested on day 7. Neural progenitor amplification was measured by quantifying the number of BrdU-positive cells in the subgranular zone (SGZ) of hippocampal tissue sections.

mouse hippocampus [2] = experiment: Neuronal differentiation (DCX with BrdU) after intracerebroventricular osmotic pump infusion; type: in vivo; settings: 1 mM intracerebroventricular 7 days, tissue harvested day 14, compared to allopurinol or vehicle alone
Method: To assess the effects of febuxostat on adult neurogenesis, febuxostat or allopurinol (1 mM) were delivered to mouse brains for 7 days as described above. BrdU was administered in eight injections over days 2-3. The osmotic pump was removed on day 7 and brain tissues were harvested on day 14. The hippocampal slices were subjected to immunohistochemical analysis for the detection of BrdU and doublecortin (DCx) (newly formed neuron marker) stained cells in the subgranular zone of the hippocampus.

[3] = tested on: hippocampus of mice subjected to chronic restraint stress; experiment: Neural progenitor amplification (BrdU-positive cells) in mice under chronic restraint stress; type: in vivo, mouse; settings: for neuron progenitor amplification (BrdU incorporation): vs allopurinol, vehicle and unrestrained controls, n=3 mice
Method: (§1) Murine subjects underwent CRS on day zero, with febuxostat (1 mg kg^−1 d^−1) allopurinol (20 mg kg^−1 d^−1), Rhy37 (10 mg kg^−1 d^−1), or vehicle alone, administered daily intragastrically beginning on day 15. BrdU was administered on day 36, and brain tissues harvested on day 37 or 50. Control subjects remained free throughout the trial period. Neural progenitor amplification was measured by quantifying the number of BrdU-positive cells in hippocampal tissue sections. […] Results were compared using a one-way ANOVA test.

[4] = tested on: hippocampus of mice subjected to chronic restraint stress; experiment: Neuronal differentiation (DCX+/BrdU-positive cells) in mice under chronic restraint stress; type: in vivo, mouse
Method: as §1

[5] = CRS mice, daily intragastric from day 15, harvest day 37 or 50, compared to allopurinol or vehicle alone

SMILES: Cc1nc(-c2ccc(OCC(C)C)c(C#N)c2)sc1C(=O)O [febuxostat, 2-(3-cyano-4-isobutoxyphenyl)-4-methyl-1,3-thiazole-5-carboxylic acid]
- neural progenitor amplification (BrdU-positive cells in the subgranular zone) (mouse hippocampus [1]): promotes neural progenitor amplification; also recorded: increased levels
- neural differentiation (BrdU and doublecortin stained cells in the subgranular zone) (mouse hippocampus [2]): neuronal differentiation; also recorded: increased levels
- neuron progenitor amplification (BrdU incorporation) ([3]; 37 days of chronic restraint stress): promotes neuron progenitor amplification
- neuron progenitor amplification (BrdU incorporation) ([3]; 50 days of chronic restraint stress): promotes neuron progenitor amplification
- neural progenitor amplification (BrdU-positive cells) [3, 5]: increased levels
- neuronal differentiation (DCX expression with BrdU incorporation) ([4]; 50 days of chronic restraint stress, vs allopurinol, vehicle and unrestrained controls): promotes neuronal differentiation
- neural differentiation (DCX+/BrdU-positive cells) [4, 5]: increased levels
